Paper PMC6978316, “Development of chimeric peptides to facilitate the neutralisation of lipopolysaccharides during bactericidal targeting of multidrug-resistant Escherichia coli” (Communications Biology, 2020)
Where two headings read alike, the source gives them in different places. Where a SMILES comes first, the peptide text is derived from it. Bridges are numbered along the chain shown (N, C = ends). Where no end group is shown, it is not given here.

Assays:
pepsin = type: in vitro ADME
trypsin = type: in vitro ADME
in vitro = details: mouse, serum, peptide remaining in serum, Mean, mice serum, 37 °C, RP-HPLC, mean of n = 3 (source data Fig. 2f)
Experimental: The thermal, pH and enzyme stability of A6 and G6 were evaluated against MDR E. coli CVCC195 using a previous method with minor revisions. The N6, A6, and G6 solutions were treated at different temperatures (20–100 °C) for 1 h, dissolved and incubated at different pH values (2–10) for 3 h, or incubated with trypsin or pepsin for 4 h. The inhibition zone diameters were measured after incubation at 37 °C for 18–24 h. The peptides were dissolved in H2O or mice serum at 37 °C to detect their serum stability and samples were removed at different time points to determine their residual activity by the inhibition zone or reverse-phase high-performance liquid chromatography (RP-HPLC) methods[62],[63].

[1] = Biodistribution of FITC-labeled peptides (in vivo fluorescence imaging); details: nude mice, FITC-labeled peptide 5 mg per kg intraperitoneally
Experimental: The nude mice were intraperitoneally injected with 5 mg per kg FITC-labeled A6, G6, and N6, respectively. Free FITC was used as a negative control.

tested bacterial strains = experiment: MIC, range over all tested strains (peer review file); type: cell-based; details: manuscript lines quoted in the peer review file
Experimental: The MIC values of A6, G6, the parental peptides (N6 and LBP14), LBPN6, scramble controls (N6CK, A6CK, and G6CK), and PMB were determined by the microtiter broth dilution method. The tested strains included Gram-negative bacteria, Gram-positive bacteria, and fungi and were cultured to the logarithmic growth phase, diluted to 10^5 CFU per ml, and added into 96-well plates (90 μl per well). Peptides or antibiotic were diluted with PBS by 2-fold dilution and were added to each well (10 μl per well). Polymyxin B (PMB) and PBS were used as the positive and negative control, respectively. […] All experiments were repeated three times.

E. coli LPS = experiment: BODIPY-TR-cadaverine (BC) displacement assay; type: binding, Escherichia coli; parameters: BC displacement from LPS, Mean: unit not given here; details: for BC displacement from LPS, Mean: mean of n = 3
Experimental: The affinity of SCPs (A6, G6, and N6) to E. coli LPS was detected by the fluorescent BC probe. The binding of fluorescent probe with LPS can cause fluorescence quenching. When peptides bind to LPS, BC probe can be replaced, which can result in an increase in fluorescence. Equal volumes of LPS (40 μg per ml) and BC probe (10 μM) in 50 mM Tris buffer (pH 7.4) were mixed and added into a black 96-well microtiter plate (180 μl mixture per well), followed by the addition of different concentrations of A6, G6, or N6 (20 μl per well). Ampicillin and PMB were used as the negative and positive control, respectively. Changes in fluorescence were measured by a fluorescence spectrophotometry at room temperature (excitation: 580 nm, emission: 620 nm) and the BC displacement rate was calculated.

E. coli CVCC195 = type: cell-based, Escherichia coli; details: for Fold change in MIC: E. coli CVCC195
Experimental: Bacterial resistance against the peptides was assessed via the MIC assays. […] After 16–18 h of incubation at 37 °C, cells from the second highest concentration showing visible growth were used to inoculate the subsequent cultures. The MIC values for drug passage cultures were obtained as described above. This process was repeated for 30 d.

With CC(C)[C@@H]1NC(=O)CNC(=O)[C@H](CC(N)=O)NC(=O)[C@H](CCCNC(=N)N)NC(=O)[C@H](Cc2ccc(O)cc2)NC(=O)[C@H](C(C)C)NC(=O)[C@@H](NC(=O)[C@@H](NC(=O)[C@H](CC(N)=O)NC(=O)[C@H](Cc2c[nH]c3ccccc23)NC(=O)[C@H](C)NC(=O)[C@H](Cc2ccccc2)NC(=O)CN)C(C)C)CSSC[C@@H](C(=O)N[C@@H](Cc2cnc[nH]2)C(=O)N[C@@H](CCCNC(=N)N)C(=O)N[C@@H](CCCNC(=N)N)C(=O)N[C@@H](C)C(=O)N[C@@H](CC(N)=O)C(=O)O)NC(=O)[C@H](C(C)C)NC(=O)[C@H](CCCNC(=N)N)NC1=O [N6] (H-GFAWNVCVYRNGVRVCHRRAN-OH; disulfide 7-16) the “antibacterial activity after pepsin (inhibition zone diameter), Mean” value (pepsin) was 1.866, the “antibacterial activity without enzyme (inhibition zone diameter), Mean” value (pepsin) was 2.004 and the “antibacterial activity after trypsin (inhibition zone diameter), Mean” value (trypsin) was 0. For the same molecule, the remaining at 1 h (in vitro; 1 h) was 93%, the remaining at 2 h (in vitro; 2 h) was 87.5% and the remaining at 4 h (in vitro; 4 h) was 77.3%. For the same molecule, the “time after injection at which the fluorescence disappeared / peptide was excreted” value [1] was 72 h.
In the case of “RVQGRWKVRASFFKEAAAKEAAAKVCVYRGFAWNCHRRANNGVRV (disulfide 26-35) [A6CK]”, the “MICs against the tested bacterial strains (range)” value (tested bacterial strains) was “hardly any activity”.
In the case of CC1(C)S[C@@H]2[C@H](NC(=O)[C@H](N)c3ccccc3)C(=O)N2[C@H]1C(=O)O [AMP, Ampicillin], the “BC displacement from LPS, Mean” value (E. coli LPS; 0.05 μM, LPS 40 μg per ml + BC 10 μM, 50 mM Tris pH 7.4, ex 580/em 620 nm) was -0.1364, the “BC displacement from LPS, Mean” value (E. coli LPS; 0.1 μM) was -0.2089 and the “BC displacement from LPS, Mean” value (E. coli LPS; 0.5 μM) was -1.734. The “BC displacement from LPS, Mean” value (E. coli LPS; 1 μM) was -1.14, the “BC displacement from LPS, Mean” value (E. coli LPS; 5 μM) was -3.263 and the “BC displacement from LPS, Mean” value (E. coli LPS; 10 μM) was -3.845. For the same molecule, the “BC displacement from LPS, Mean” value (E. coli LPS; 50 μM) was -4.033, the BC displacement ratio (E. coli LPS; 100 μM) was “did not displace BC probe” and the “BC displacement from LPS, Mean” value (E. coli LPS; 100 μM) was -4.227.
For CNC(C)C1CCC(N)C(OC2C(N)CC(N)C(OC3OCC(C)(O)C(NC)C3O)C2O)O1 (centres unmarked) [Gentamicin, gentamicin], the “Fold change in MIC” value (E. coli CVCC195; Day 1 of serial passage) was 1 fold, the “Fold change in MIC” value (E. coli CVCC195; Day 2 of serial passage) was 2 fold and the “Fold change in MIC” value (E. coli CVCC195; Day 3 of serial passage) was 2 fold. The “Fold change in MIC” value (E. coli CVCC195; Day 4 of serial passage) was 1 fold, the “Fold change in MIC” value (E. coli CVCC195; Day 5 of serial passage) was 2 fold and the “Fold change in MIC” value (E. coli CVCC195; Day 6 of serial passage) was 2 fold. The “Fold change in MIC” value (E. coli CVCC195; Day 7 of serial passage) was 4 fold, the “Fold change in MIC” value (E. coli CVCC195; Day 8 of serial passage) was 4 fold and the “Fold change in MIC” value (E. coli CVCC195; Day 9 of serial passage) was 4 fold. For the same molecule, the “Fold change in MIC” value (E. coli CVCC195; Day 10 of serial passage) was 8 fold, the “Fold change in MIC” value (E. coli CVCC195; Day 11 of serial passage) was 8 fold and the “Fold change in MIC” value (E. coli CVCC195; Day 12 of serial passage) was 8 fold. The “Fold change in MIC” value (E. coli CVCC195; Day 13 of serial passage) was 8 fold, the “Fold change in MIC” value (E. coli CVCC195; Day 14 of serial passage) was 16 fold and the “Fold change in MIC” value (E. coli CVCC195; Day 15 of serial passage) was 16 fold. The “Fold change in MIC” value (E. coli CVCC195; Day 16 of serial passage) was 16 fold, the “Fold change in MIC” value (E. coli CVCC195; Day 17 of serial passage) was 16 fold and the “Fold change in MIC” value (E. coli CVCC195; Day 18 of serial passage) was 16 fold. For the same molecule, the “Fold change in MIC” value (E. coli CVCC195; Day 19 of serial passage) was 16 fold, the “Fold change in MIC” value (E. coli CVCC195; Day 20 of serial passage) was 16 fold and the “Fold change in MIC” value (E. coli CVCC195; Day 21 of serial passage) was 16 fold. For the same molecule, the “Fold change in MIC” value (E. coli CVCC195; Day 22 of serial passage) was 16 fold, the “Fold change in MIC” value (E. coli CVCC195; Day 23 of serial passage) was 16 fold and the “Fold change in MIC” value (E. coli CVCC195; Day 24 of serial passage) was 16 fold. The “Fold change in MIC” value (E. coli CVCC195; Day 25 of serial passage) was 16 fold, the “Fold change in MIC” value (E. coli CVCC195; Day 26 of serial passage) was 16 fold and the “Fold change in MIC” value (E. coli CVCC195; Day 27 of serial passage) was 16 fold. The “Fold change in MIC” value (E. coli CVCC195; Day 28 of serial passage) was 16 fold, the “Fold change in MIC” value (E. coli CVCC195; Day 29 of serial passage) was 16 fold and the “Fold change in MIC” value (E. coli CVCC195; Day 30 of serial passage) was 16 fold. For the same molecule, the MIC elevation (E. coli CVCC195; at 7 d of serial passage) was 3 fold and the MIC elevation (E. coli CVCC195; at 15 d of serial passage) was 15 fold.
With CC(C)[C@H](N)C(=O)N[C@H]1CSSC[C@@H](C(=O)N[C@@H](Cc2c[nH]cn2)C(=O)N[C@@H](CCCNC(=N)N)C(=O)N[C@@H](CCCNC(=N)N)C(=O)N[C@@H](C)C(=O)N[C@@H](CC(N)=O)C(=O)N[C@@H](CC(N)=O)C(=O)NCC(=O)N[C@H](C(=O)N[C@@H](CCCNC(=N)N)C(=O)N[C@H](C(=O)O)C(C)C)C(C)C)NC(=O)[C@H](CC(N)=O)NC(=O)[C@H](Cc2c[nH]c3ccccc23)NC(=O)[C@H](C)NC(=O)[C@H](Cc2ccccc2)NC(=O)CNC(=O)[C@H](CCCNC(=N)N)NC(=O)[C@H](Cc2ccc(O)cc2)NC(=O)[C@H](C(C)C)NC1=O [N6CK] (H-VCVYRGFAWNCHRRANNGVRV-OH; disulfide 2-11; N-terminus and C-terminus assumed) the “MICs against the tested bacterial strains (range)” value (tested bacterial strains) was “hardly any activity”.
